Source: patent US11649476B2, “Flow cytometry data processing for antimicrobial agent sensibility prediction” (priority 2016, dated 2023)

What was measured:
[1] = test system: Enterobacteriaceae strains; assay: FCM analysis of Ceftazidime-treated strains (DiBAC4(3) marker), fluorescence distribution; assay type: cell-based; details: 128 strains, 1, 2, 4 and 8 mg/L Ceftazidime; inferred from low performance of quantile models
Description: In a next step 22, liquid samples with different concentrations {C1, . . . , Cm} of the antibiotic are prepared for each of the selected strains Si, where C1=0 (no antibiotic) and m>2 is the number of non-null concentrations of antibiotic. Said concentrations are stored in the computer unit 14. […] After 2 h growth at 35° C. with shaking at 180 rpm, the resulting exponential phase bacterial culture is normalized at 0.5 McF and used to inoculate wells of a microtiterplate supplemented with antibiotics at the different concentrations {C1, . . . , Cm}. After 1 h of incubation at 35° C., a membrane depolarization fluorescent marker, for example (Bis-(1,3-Dibutylbarbituric Acid)Trimethine Oxonol), also known as “DiBAC4(3)”, is added to the wells at a final concentration of 0.5 μg/ml. An additional 15 min incubation with the marker is at 35° C. is then carried out. […]
In the step 24, a FCM acquisition is performed for each sample by means of the flow-cytometer 12 and the corresponding FSC, SSC and fluorescence distributions stored in the computer unit 14. For each strain Si, and for each concentration C1, a FSC distribution “FSCi,j”, a SSC distribution “SSCi,j” and a fluorescence distribution “FIi,j” are thus stored in the computer unit 14, e.g. in the form of digital vectors. […]

[2] = test system: Enterobacteriaceae strains; assay: FCM fluorescence distribution profiles of Gentamicin-treated strains (DiBAC4(3) membrane depolarization marker); assay type: cell-based
Description: In a next step 22, liquid samples with different concentrations {C1, . . . , Cm} of the antibiotic are prepared for each of the selected strains Si, where C1=0 (no antibiotic) and m>2 is the number of non-null concentrations of antibiotic. Said concentrations are stored in the computer unit 14. […] After 2 h growth at 35° C. with shaking at 180 rpm, the resulting exponential phase bacterial culture is normalized at 0.5 McF and used to inoculate wells of a microtiterplate supplemented with antibiotics at the different concentrations {C1, . . . , Cm}. After 1 h of incubation at 35° C., a membrane depolarization fluorescent marker, for example (Bis-(1,3-Dibutylbarbituric Acid)Trimethine Oxonol), also known as “DiBAC4(3)”, is added to the wells at a final concentration of 0.5 μg/ml. An additional 15 min incubation with the marker is at 35° C. is then carried out. The concentrations {C1, . . . , Cm} are chosen such that the range [BPS, BPR] is included or equal to the range [C2, Cm] of non-null concentrations.
In the step 24, a FCM acquisition is performed for each sample by means of the flow-cytometer 12 and the corresponding FSC, SSC and fluorescence distributions stored in the computer unit 14. For each strain Si, and for each concentration C1, a FSC distribution “FSCi,j”, a SSC distribution “SSCi,j” and a fluorescence distribution “FIi,j” are thus stored in the computer unit 14, e.g. in the form of digital vectors.
The experiment was performed as described in the following lines: • A panel of 107 Enterobacteriaceae strains (FIG. 6: Distribution of the panel of strains according to their MICs for Gentamicin) were treated with 0, 2, 4 and 8 mg/L of Gentamicin following the protocol described in FIG. 3 and analyzed by FCM.

Molecule	fluorescence distribution of treated strains [1]	fluorescence distribution profile vs untreated samples ([2]; intermediate phenotype strains, 2 mg/L Gentamicin)	fluorescence distribution profile vs untreated samples ([2]; intermediate phenotype strains, 4 and 8 mg/L Gentamicin)	resistant strains that did not show any shift in fluorescence (profile A) ([2]; resistant phenotype strains, all concentrations tested (2, 4, 8 mg/L))	fluorescence distribution profile vs untreated samples ([2]; susceptible phenotype strains, 2 mg/L Gentamicin, panel of 107 strains, approximately evaluated)	fluorescence distribution profile vs untreated samples ([2]; susceptible phenotype strains, 4 and 8 mg/L Gentamicin, panel of 107 strains, approximately evaluated)
CC(C)(O/N=C(\C(=O)N[C@@H]1C(=O)N2C(C(=O)[O-])=C(C[n+]3ccccc3)CS[C@H]12)c1csc(N)n1)C(=O)O [Ceftazidime]	the majority of strains treated with Ceftazidime exhibit homogeneous distributions of fluorescence	–	–	–	–	–
Gentamicin	–	more strains showed no shift of fluorescence (profile A)	equal number of strains exhibited either no shift (profile A) or heterogeneous fluorescence distribution (profile B)	36 out of 37	equal number of strains exhibited either no shift (profile A) or heterogeneous fluorescence distributions (profile B)	the majority of strains exhibited an heterogeneous fluorescence distribution (profile B)
